Source: the OligoGym collection
Several values for one entry are separate records, joined by “and”; a condition that tells them apart may be missing. Equal entries are not always repeated. After the bases stand the sugars from the 5' end (letter, count) and the backbone: PS all phosphorothioate, else s phosphorothioate and o phosphodiester by linkage. Methylation of C is not given here. e = 2'-O-(2-methoxyethyl) (MOE); d = 2'-deoxy (DNA)

Molecular target: DGAT2
Conditions: ASO

Sequence	target mRNA inhibition (HepG2, 0.12 µM) [%]	target mRNA inhibition (HepG2, 2.5 µM)	target mRNA inhibition (HepG2, 10 µM)	target mRNA inhibition (HepG2, 20 µM) [%]
TCCAGGACCCTGGACATGAT (sugars e5 d10 e5, PS)	50			
TCCATGTCAGAGAGGCTCAG (sugars e5 d10 e5, PS)		54%	91%	
TCCATTTTTTACCCAACCTT (sugars e5 d10 e5, PS)		56% and 49%	93% and 94%	
TCCCCTTGGCAGAGAAACTG (sugars e5 d10 e5, PS)	47			
TCCGGACTGAATGTCACCTC (sugars e5 d10 e5, PS)		75%	85% and 90%	
TCGCTAGAGTACAAGTTCTC (sugars e5 d10 e5, PS)		88%	93%	
TCTCATTCATCTGGGCCCTG (sugars e5 d10 e5, PS)		65%	78%	
TCTCATTTCTTATCTTCAAT (sugars e5 d10 e5, PS)		60% and 72%	88% and 93%	
TCTCCTGTTTGATGGGT (sugars e3 d10 e4, PS)		41%	63%	
TCTGATCAATTATTAACCTA (sugars e5 d10 e5, PS)		20%	55%	
TCTTCTGGACCCATCGGCCC (sugars e5 d10 e5, PS)	37			
TCTTGTGCTTGTCGAAGAGC (sugars e5 d10 e5, PS)	62			
TCTTTTAAATAACCCACAGA (sugars e5 d10 e5, PS)	10			
TGAGGCCCTTCAGCTTGTGC (sugars e5 d10 e5, PS)	49			
TGAGGTTTAGGCTATGGTCT (sugars e5 d10 e5, PS)		66%	77%	
TGATAGCATTGCCACTCCCA (sugars e2 d13 e5, PS)	69			
TGCAGCCTACAAGAGCCTGT (sugars e5 d10 e5, PS)		54%	90%	
TGCAGCCTGGACAAGTCCTG (sugars e3 d14 e3, PS)	77	27%	51%	68
TGCAGCTAATGATACAAGGT (sugars e5 d10 e5, PS)		67%	89%	
TGCAGGCCCAGCACCAAGGA (sugars e5 d10 e5, PS)		19%	39%	
TGCCACAGGGCCCTTTCCAG (sugars e5 d10 e5, PS)		11%	67%	
TGCCATTTAATGAGCTTCAC (sugars e5 d10 e5, PS)		79% and 81%	91% and 92%	

Sequence	target mRNA inhibition (HepG2, 0.12 µM) [%]	target mRNA inhibition (HepG2, 2.5 µM)	target mRNA inhibition (HepG2, 10 µM)	target mRNA inhibition (HepG2, 20 µM) [%]
TGGAGCTCAGAGACTCAGCC (sugars e2 d13 e5, PS)	82			
TGGAGCTCAGAGACTCAGCC (sugars e3 d14 e3, PS)	76			
TGGCCTGGATGGCAACCTAA (sugars e5 d10 e5, PS)		46%	83%	
TGGCTCTCTAGATAGGGTGG (sugars e5 d10 e5, PS)		84% and 85%	89% and 87%	
TGGGAACTATCACACCACCT (sugars e5 d10 e5, PS)		53% and 65%	90% and 94%	
TGGTGGTCAGCAGGTTGTGT (sugars e5 d10 e5, PS)	51			
TGTGACCTTGGGATAGTCCC (sugars e5 d10 e5, PS)		63%	87%	
TGTTGCCATCATACTAGACT (sugars e5 d10 e5, PS)		64%	75%	
TTAAAAAAGACCTAACATTG (sugars e5 d10 e5, PS)	0			
TTAAGGGTTCATGGATCCCC (sugars e5 d10 e5, PS)		63% and 75% and 79%	91% and 93%	
TTATAATTTCTTTTAAATAA (sugars e5 d10 e5, PS)	0			
TTCTGGACCCATCGGCCCCA (sugars e5 d10 e5, PS)	27			
TTGCCAGGCATGGAGCTCAG (sugars e5 d10 e5, PS)	37			
TTGCTCAGTTCTTCCAACCA (sugars e5 d10 e5, PS)		81% and 72%	93% and 94%	
TTGGATAGTCGATTTACCAG (sugars e5 d10 e5, PS)		62%	92%	
TTTAAATAACCCACAGACAC (sugars e5 d10 e5, PS)	14			
TTTAGGCTATGGTCTGAGCA (sugars e5 d10 e5, PS)		68% and 55%	85% and 78%	
TTTCTAGGGAAGCATGTGCA (sugars e5 d10 e5, PS)		67% and 68%	90% and 88%	
TTTCTTATCTTCAATCCTCA (sugars e5 d10 e5, PS)		56%	90%	
TTTCTTTTAAATAACCCACA (sugars e5 d10 e5, PS)	1			
TTTGAAATCCAATGCACCTT (sugars e5 d10 e5, PS)		63%	96%	
